Data: US11964973B2 (priority 2019, dated 2024)

What follows are compounds tested on Human venous whole blood (IFN-γ) (assay: Human whole blood IFN-γ assay). Details: Homo sapiens, 24 h, human whole blood, anti-CD3 plus anti-CD28, 24 hours; read-out: INFg Whole Blood Normalized Agonist EC50.
Type: cell-based
Procedure: Assay 10: Human Whole Blood IFN-γ Assay
Human venous whole blood (22.5 μL per well), obtained from healthy donors, was pre-treated with compounds for one hour at 37° C. in a humidified 95% air/5% CO2 incubator. The blood was stimulated with 2.5 μL anti-human CD3 and anti-CD28 mAb at a final concentration of 1 μg/mL each for 24 hours at 37° C. IFN-γ in the supernatants was measured using AlphLISA kit (Cat #AL217).

SMILES	EC50
C[C@@H]1CN(c2cc(=O)n(C)c3ccc(C#N)nc23)CC[C@H]1Oc1ccc(OC(F)(F)F)cc1 (single isomer, unassigned) [Example 80, 6-cyano-1-methyl-4-(trans-3-methyl-4-(4-(trifluoromethoxy)phenoxy)piperidin-1-yl)-1,5-naphthyridin-2(1H)-one (rel)]	2.4 µM
C[C@@H]1CN(c2cc(=O)n(C)c3ccc(C#N)nc23)CC[C@H]1Oc1ccc(C2CCCCC2)cc1 (racemic) [Example 106, 8-((3R,4R)-4-(4-cyclohexylphenoxy)-3-methylpiperidin-1-yl)-5-methyl-6-oxo-5,6-dihydro-1,5-naphthyridine-2-carbonitrile]	2.2 µM
C[C@@H]1CN(c2cc(=O)n(C)c3ccc(C#N)nc23)CC[C@H]1Oc1c(F)cccc1F [Example 125, 8-((3R,4R)-4-(2,6-difluorophenoxy)-3-methylpiperidin-1-yl)-5-methyl-6-oxo-5,6-dihydro-1,5-naphthyridine-2-carbonitrile]	20 µM
C[C@@H]1CN(c2cc(=O)n(C)c3ccc(C#N)nc23)CC[C@H]1Oc1ccc(C2CC2)cc1 (racemic) [Example 111, 8-((3R,4R)-4-(4-cyclopropylphenoxy)-3-methylpiperidin-1-yl)-5-methyl-6-oxo-5,6-dihydro-1,5-naphthyridine-2-carbonitrile]	3.3 µM
C[C@@H]1CN(c2cc(=O)n(C)c3ccc(C#N)nc23)CC[C@H]1Oc1ccc(F)cc1 (single isomer, unassigned) [Example 129]	20 µM
C[C@@H]1CN(c2cc(=O)n(C)c3ccc(C#N)nc23)CC[C@H]1Oc1ccc(OC(F)(F)F)cc1 (racemic) [Example 79, (+/−) 6-cyano-1-methyl-4-(trans-3-methyl-4-(4-(trifluoromethoxy)phenoxy)piperidin-1-yl)-1,5-naphthyridin-2(1H)-one]	2.2 µM
C[C@@H]1CN(c2cc(=O)n(C)c3ccc(C#N)nc23)CC[C@H]1Oc1ccc(F)cc1F (racemic) [Example 113, 8-((3R,4R)-4-(2,4-difluorophenoxy)-3-methylpiperidin-1-yl)-5-methyl-6-oxo-5,6-dihydro-1,5-naphthyridine-2-carbonitrile]	4.1 µM

Same assay, conditions: Homo sapiens, human whole blood IFN-γ; read-out: INFg Whole Blood

SMILES	EC50
CC(C)c1cccc(O[C@H]2CCN(c3cc(=O)n(C)c4ccc(C#N)nc34)C[C@H]2C)n1 (single isomer, unassigned) [Example 215]	2.1 µM
CCCc1cc(O[C@@H]2CCN(c3cc(=O)n(C)c4ccc(C#N)nc34)C[C@H]2CC)ccc1F [Example 195, 8-((3R,4R)-3-ethyl-4-(4-fluoro-3-propylphenoxy)piperidin-1-yl)-5-methyl-6-oxo-5,6-dihydro-1,5-naphthyridine-2-carbonitrile]	0.33 µM
C[C@@H]1CN(c2cc(=O)n(C)c3ccc(C#N)nc23)CC[C@@H]1Oc1ncc(C(F)(F)F)cn1 [Example 222, 5-methyl-8-((3R,4S)-3-methyl-4-((5-(trifluoromethyl)pyrimidin-2-yl)oxy)piperidin-1-yl)-6-oxo-5,6-dihydro-1,5-naphthyridine-2-carbonitrile]	3.9 µM
C[C@@H]1CN(c2cc(=O)n(C)c3ccc(C#N)nc23)CC[C@@H]1Oc1ncc(C2CC2)cn1 [Example 223, 8-((3R,4S)-4-((5-cyclopropylpyrimidin-2-yl)oxy)-3-methylpiperidin-1-yl)-5-methyl-6-oxo-5,6-dihydro-1,5-naphthyridine-2-carbonitrile]	17 µM
C[C@@H]1CN(c2c(C#N)c(=O)n(C)c3ccc(C#N)nc23)CC[C@@H]1Oc1ccc(C(F)(F)F)cc1 [Example 189, 5-methyl-8-((3R,4S)-3-methyl-4-(4-(trifluoromethyl)phenoxy)piperidin-1-yl)-6-oxo-5,6-dihydro-1,5-naphthyridine-2,7-dicarbonitrile]	20 µM
C[C@@H]1CN(c2cc(=O)n(C)c3ccc(C#N)nc23)CC[C@@H]1Oc1ccc(C(F)F)cn1 [Example 208, 8-((3R,4S)-4-((5-(difluoromethyl)pyridin-2-yl)oxy)-3-methylpiperidin-1-yl)-5-methyl-6-oxo-5,6-dihydro-1,5-naphthyridine-2-carbonitrile]	2.1 µM
CC(C)c1ccnc(O[C@H]2CCN(c3cc(=O)n(C)c4ccc(C#N)nc34)C[C@H]2C)c1 [Example 211, 8-((3R,4S)-4-((4-isopropylpyridin-2-yl)oxy)-3-methylpiperidin-1-yl)-5-methyl-6-oxo-5,6-dihydro-1,5-naphthyridine-2-carbonitrile]	3.9 µM
C[C@@H]1CN(c2cc(=O)n(C)c3ccc(C#N)nc23)CC[C@@H]1Oc1ccc(C(F)(F)F)cc1 (racemic) [Example 186, (+/−) 5-methyl-8-(cis-3-methyl-4-(4-(trifluoromethyl)phenoxy)piperidin-1-yl)-6-oxo-5,6-dihydro-1,5-naphthyridine-2-carbonitrile]	1.6 µM
C[C@@H]1CN(c2cc(=O)n(C)c3ccc(C#N)nc23)CC[C@@H]1Oc1ccc(C2CC2)cn1 [Example 224, 8-((3R,4S)-4-((5-cyclopropylpyridin-2-yl)oxy)-3-methylpiperidin-1-yl)-5-methyl-6-oxo-5,6-dihydro-1,5-naphthyridine-2-carbonitrile]	5.8 µM
C[C@@H]1CN(c2cc(=O)n(C)c3ccc(C(N)=O)nc23)CC[C@@H]1OCc1ccc(OC(F)(F)F)cc1 (racemic) [Example 236, (+/−) 5-methyl-8-(cis-3-methyl-4-((4-(trifluoromethoxy)benzyl)oxy)piperidin-1-yl)-6-oxo-5,6-dihydro-1,5-naphthyridine-2-carboxamide]	20 µM
C[C@@H]1CN(c2cc(=O)n(C)c3ccc(C#N)nc23)CC[C@@H]1Oc1ncccn1 [Example 217, 5-methyl-8-((3R,4S)-3-methyl-4-(pyrimidin-2-yloxy)piperidin-1-yl)-6-oxo-5,6-dihydro-1,5-naphthyridine-2-carbonitrile]	20 µM
CC(C)Oc1ccc(OC2CCN(c3cc(=O)n(C)c4ccc(C#N)nc34)CC2(C)C)nc1 (racemic) [Example 232, (+/−) 8-(4-((5-isopropoxypyridin-2-yl)oxy)-3,3-dimethylpiperidin-1-yl)-5-methyl-6-oxo-5,6-dihydro-1,5-naphthyridine-2-carbonitrile]	7 µM
CC(C)c1cccc(O[C@H]2CCN(c3cc(=O)n(C)c4ccc(C#N)nc34)C[C@H]2C)n1 [Example 214, 8-((3R,4S)-4-((6-isopropylpyridin-2-yl)oxy)-3-methylpiperidin-1-yl)-5-methyl-6-oxo-5,6-dihydro-1,5-naphthyridine-2-carbonitrile]	5 µM

Same assay, conditions: Homo sapiens, read-out: INFg Whole Blood, human whole blood IFN-γ

SMILES	EC50
CC[C@@H]1CN(c2cc(=O)n(C)c3ccc(C#N)nc23)CC[C@@H]1Oc1ccc(OC(C)C)cn1 [Example 202, 8-((3R,4S)-3-ethyl-4-((5-isopropoxypyridin-2-yl)oxy)piperidin-1-yl)-5-methyl-6-oxo-5,6-dihydro-1,5-naphthyridine-2-carbonitrile]	2 µM
CC[C@@H]1CN(c2cc(=O)n(C)c3ccc(C#N)nc23)CC[C@H]1Oc1cccc(C(C)(C)C)c1 [Example 196, 8-((3R,4R)-4-(3-(tert-butyl)phenoxy)-3-ethylpiperidin-1-yl)-5-methyl-6-oxo-5,6-dihydro-1,5-naphthyridine-2-carbonitrile]	0.29 µM

Same assay, conditions: human whole blood IFN-γ; read-out: INFg Whole Blood

SMILES	EC50
CC(C)Oc1ccc(OC2CCN(c3cc(=O)n(C)c4ccc(C#N)nc34)CC2(C)C)nc1 (single isomer, unassigned) [Example 234, 8-(4-((5-isopropoxypyridin-2-yl)oxy)-3,3-dimethylpiperidin-1-yl)-5-methyl-6-oxo-5,6-dihydro-1,5-naphthyridine-2-carbonitrile (rel)]	9.3 µM
CO[C@@H]1CN(c2cc(=O)n(C)c3ccc(C#N)nc23)CC[C@H]1Oc1cccc(C(F)(F)F)c1 (racemic) [Example 262, (±)-trans-8-(3-methoxy-4-(3-(trifluoromethyl)phenoxy)piperidin-1-yl)-5-methyl-6-oxo-5,6-dihydro-1,5-naphthyridine-2-carbonitrile]	12 µM
C[C@@H]1CN(c2cc(=O)n(C)c3ccc(C#N)nc23)CC[C@@H]1Oc1ccc(C(F)(F)F)cn1 (single isomer, unassigned) [Example 227]	4.2 µM

Same assay, conditions: human whole blood, anti-CD3 plus anti-CD28, 24 hours; read-out: INFg Whole Blood Normalized Agonist EC50

SMILES	EC50
C[C@@H]1CN(c2cc(=O)n(C)c3ccc(C#N)nc23)CC[C@H]1Oc1ccc(F)c(F)c1 (single isomer, unassigned) [Example 105]	2 µM
CC[C@@H]1CN(c2cc(=O)n(C)c3ccc(C#N)nc23)CC[C@H]1Oc1ccc(C(C)(C)C)cc1 (single isomer, unassigned) [Example 154]	11 µM
C[C@@H]1CN(c2cc(=O)n(C)c3ccc(C#N)nc23)CC[C@H]1Oc1ccc(OC(F)(F)F)cc1 (single isomer, unassigned) [Example 81, 6-cyano-1-methyl-4-(trans-3-methyl-4-(4-(trifluoromethoxy)phenoxy)piperidin-1-yl)-1,5-naphthyridin-2(1H)-one (rel)]	2 µM
C[C@@H]1CN(c2cc(=O)n(C)c3ccc(C#N)nc23)CC[C@H]1Oc1c(F)cccc1F (single isomer, unassigned) [Example 127]	20 µM
CC[C@@H]1CN(c2cc(=O)n(C)c3ccc(C#N)nc23)CC[C@H]1Oc1ccc(C(C)C)cc1 (single isomer, unassigned) [Example 145]	7.8 µM
CC[C@@H]1CN(c2cc(=O)n(C)c3ccc(C#N)nc23)CC[C@H]1Oc1ccc(C(C)(C)CC)cc1 (single isomer, unassigned) [Example 151]	2.4 µM
C[C@@H]1CN(c2cc(=O)n(C)c3ccc(C#N)nc23)CC[C@H]1Oc1ccc(C(F)(F)F)cc1 (single isomer, unassigned) [Example 99]	2.9 µM
